Source: US10189854B2, “Substituted pyrimidine compounds” (Grünenthal GmbH, priority 2014, dated 2019)

Target: human PDE4B1 (Homo sapiens (Human), UniProt Q07343)
Test: TR-FRET assay using the LANCE Ultra cAMP kit to determine the activity of hPDE4B1
Assay type: biochemical
Conditions: IC50 inhibition of PDE4B, mean
From the text: TR-FRET Assay Using the LANCE® Ultra cAMP Kit to Determine the Activity of hPDE4B1
The effects of the compounds on the activity of the human PDE4B1 was quantified by measuring the production of 5′AMP from cAMP using a human recombinant enzyme expressed in Sf9 cells and the LANCE® Ultra cAMP kit, a TR-FRET detection method from PerkinElmer. The human PDE4B1 enzyme was purchased from SignalChem Lifesciences (Catalog# P92-31BG, Lot# H296-2).
The test compound, reference compound or water (control) was mixed with the enzyme (0.96 U) in a reaction buffer containing 50 mM Tris-HCl, 50 mM MgCl2 and 5 mM DTT (pH 8.5). Thereafter, the reaction was initiated by addition of 500 nM cAMP (substrate) and the mixture was incubated for 30 minutes at room temperature. For control basal measurements, the enzyme was omitted from the reaction mixture. After 30 minutes, the reaction was stopped and diluted by a factor of 100 with the reaction buffer supplemented with 500 μM IBMX. The fluorescence donor (europium chelate-labeled cAMP) and the fluorescence acceptor (anti-cAMP antibody labeled with the ULight™ dye) were then added together with 500 μM IBMX to a 10 μl aliquot. After 60 minutes, the fluorescence transfer corresponding to the amount of residual cAMP was measured at λex=337 nm, λem=620 nm and λem=665 nm using a microplate reader (PHERAstar, BMG). The enzyme activity was determined by dividing the signal measured at 665 nm by that measured at 620 nm (ratio) multiplied by 10000. The results were expressed as percent inhibition of the control enzyme activity. IC50 values (IC50=concentration causing a half-maximal inhibition of control specific activity) were derived from dose response measurements with ten different concentrations (n=3; N=1-3).
Several compounds according to the invention are tested with above mentioned assay.

Sequence of human PDE4B1 (Q07343 whole entry): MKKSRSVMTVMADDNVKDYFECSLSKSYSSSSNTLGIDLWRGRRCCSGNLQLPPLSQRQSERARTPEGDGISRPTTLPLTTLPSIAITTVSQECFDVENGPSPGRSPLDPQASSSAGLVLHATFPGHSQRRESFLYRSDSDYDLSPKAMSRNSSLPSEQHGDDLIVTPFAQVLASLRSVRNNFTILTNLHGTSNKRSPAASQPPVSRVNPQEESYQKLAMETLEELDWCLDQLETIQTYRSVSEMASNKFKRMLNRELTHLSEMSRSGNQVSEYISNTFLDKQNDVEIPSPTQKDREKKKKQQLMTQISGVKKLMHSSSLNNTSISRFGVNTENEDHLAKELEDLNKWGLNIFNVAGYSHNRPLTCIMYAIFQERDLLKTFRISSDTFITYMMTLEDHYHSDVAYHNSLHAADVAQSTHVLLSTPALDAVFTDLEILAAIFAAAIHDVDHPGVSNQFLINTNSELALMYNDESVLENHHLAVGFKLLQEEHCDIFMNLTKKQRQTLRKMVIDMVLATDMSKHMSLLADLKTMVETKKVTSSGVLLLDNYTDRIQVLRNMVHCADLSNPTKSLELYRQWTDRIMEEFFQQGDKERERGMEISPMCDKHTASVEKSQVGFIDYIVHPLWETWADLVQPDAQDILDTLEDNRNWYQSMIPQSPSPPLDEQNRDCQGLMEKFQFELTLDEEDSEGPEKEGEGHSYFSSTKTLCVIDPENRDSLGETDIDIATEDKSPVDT

In the case of `O=C(c1ccc2c(c1)N(c1ncc(-c3ccccc3F)cn1)CC21CC1)N1C[C@H]2C[C@@H]1CN2` [Compound 220, [(1R,4R)-2,5-Diazabicyclo[2.2.1]heptan-2-yl]-[1-[5-(2-fluorophenyl)-pyrimidin-2-yl]spiro[1,2-dihydro-indole-3,1′-cyclopropane]-6-yl]-methanone], the IC50 is reported as 0.1 to 1 µM.

`O=C(c1ccc2c(c1)N(c1ncc(-c3cc(NCC4CC4)ccn3)cn1)CC21CC1)N1CCOCC1` [Compound 295, [1-[5-[4-(Cyclopropyl-methylamino)-pyridin-2-yl]-pyrimidin-2-yl]-spiro[1,2-dihydro-indole-3,1′-cyclopropane]-6-yl]-morpholin-4-yl-methanone] showed an IC50 of less than 0.1 µM.

`C[S+]([O-])c1ccc(F)c(-c2cnc(N3CC4(CC4)c4ccc(C(=O)N5CCOCC5)cc43)nc2)c1` (stereo not drawn) [Compound 355, [1-[5-[2-Fluoro-5-(methylsulfinyl)-phenyl]-pyrimidin-2-yl]-spiro[1,2-dihydro-indole-3,1′-cyclopropane]-6-yl]-morpholin-4-yl-methanone] gave an IC50 of less than 0.1 µM.

In the case of `CCc1nc(-c2cnc(N3CC4(CC4)c4ccc(C(=O)N(C)CCO)cc43)nc2)cs1` [Compound 325, 1-[5-(2-Ethyl-thiazol-4-yl)-pyrimidin-2-yl]-N-(2-hydroxy-ethyl)-N-methyl-spiro[1,2-dihydro-indole-3,1′-cyclopropane]-6-carboxylic acid amide], the IC50 is reported as less than 0.1 µM.

Work on `O=C(c1ccc2c(c1)N(c1ncc(-c3cc(C4CC4)ccn3)cn1)CC21CC1)N1CCC[C@@H](CO)C1` [Compound 336, [1-[5-(4-Cyclopropyl-pyridin-2-yl)-pyrimidin-2-yl]-spiro[1,2-dihydro-indole-3,1′-cyclopropane]-6-yl]-[(3R)-3-(hydroxymethyl)-piperidin-1-yl]-methanone] yielded an IC50 of less than 0.1 µM.

In the case of `CN(CCO)C(=O)c1ccc2c(c1)N(c1ncc(-c3cn(C)cn3)cn1)CC21CC1` [Compound 323, N-(2-Hydroxy-ethyl)-N-methyl-1-[5-(1-methyl-1H-imidazol-4-yl)-pyrimidin-2-yl]-spiro[1,2-dihydro-indole-3,1′-cyclopropane]-6-carboxylic acid amide], the IC50 is reported as less than 0.1 µM.

Molecule `O=C(c1ccc2c(c1)N(c1ncc(-c3cc(N4CCCC4)ccn3)cn1)CC21CC1)N1CCOCC1` [Compound 291, Morpholin-4-yl-[1-[5-(4-pyrrolidin1--yl-pyridin-2-yl)-pyrimidin-2-yl]-spiro[1,2-dihydro-indole-3,1′-cyclopropane]-6-yl]-methanone] has an IC50 of less than 0.1 µM.

`CS(=O)(=O)c1ccnc(-c2cnc(N3CC4(CC4)c4ccc(C(=O)N5CCOCC5)cc43)nc2)c1` [Compound 345, [1-[5-(4-Methylsulfonyl-pyridin-2-yl)-pyrimidin-2-yl]-spiro[1,2-dihydro-indole-3,1′-cyclopropane]-6-yl]-morpholin-4-yl-methanone] showed an IC50 of less than 0.1 µM.

Work on `O=C(c1ccc2c(c1)N(c1ncc(-c3ccccc3F)cn1)CC21CC1)N1CCO[C@H](CO)C1` [Compound 354, [1-[5-(2-Fluorophenyl)-pyrimidin-2-yl]-spiro[1,2-dihydro-indole-3,1′-cyclopropane]-6-yl]-[(2S)-2-(hydroxymethyl)-morpholin-4-yl]-methanone] yielded an IC50 of less than 0.1 µM.

Molecule `CN(CC(=O)O)C(=O)c1ccc2c(c1)N(c1ncc(-c3ccccc3F)cn1)CC21CC1` [Compound 245, 2-[[1-[5-(2-Fluorophenyl)-pyrimidin-2-yl]-spiro[1,2-dihydro-indole-3,1′-cyclopropane]-6-carbonyl]-methyl-amino]-acetic acid] has an IC50 of less than 0.1 µM.

With `Cc1cccc(-c2cnc(N3CC4(CC4)c4ccc(C(=O)N(C)C)cc43)nc2)n1` [Compound 303, N,N-Dimethyl-1-[5-(6-methyl-pyridin-2-yl)-pyrimidin-2-yl]-spiro[1,2-dihydro-indole-3,1′-cyclopropane]-6-carboxylic acid amide] the IC50 was less than 0.1 µM.

With `CC(O)c1ccnc(-c2cnc(N3CC4(CC4)c4ccc(C(=O)N(C)CCO)cc43)nc2)c1` (stereo not drawn) [Compound 318, N-(2-Hydroxy-ethyl)-1-[5-[4-(1-hydroxy-ethyl)-pyridin-2-yl]-pyrimidin-2-yl]-N-methyl-spiro[1,2-dihydro-indole-3,1′-cyclopropane]-6-carboxylic acid amide] the IC50 was less than 0.1 µM.

In the case of `O=C(c1ccc2c(c1)N(c1ncc(-c3ccccc3F)cn1)CC21CC1)N1CCC[C@H](CO)C1` [Compound 317, [1-[5-(2-Fluorophenyl)-pyrimidin-2-yl]-spiro[1,2-dihydro-indole-3,1′-cyclopropane]-6-yl]-[(3S)-3-(hydroxymethyl)-piperidin-1-yl]-methanone], the IC50 is reported as less than 0.1 µM.

`CN(CCO)C(=O)c1ccc2c(c1)N(c1ncc(-c3cccc(C4CC4)n3)cn1)CC21CC1` [Compound 269, 1-[5-(6-Cyclopropyl-pyridin-2-yl)-pyrimidin-2-yl]-N-(2-hydroxy-ethyl)-N-methyl-spiro[1,2-dihydro-indole-3,1′-cyclopropane]-6-carboxylic acid amide] was tested, and the IC50 was less than 0.1 µM.

`COc1ccnc(-c2cnc(N3CC4(CC4)c4ccc(C(=O)N(C)CCO)cc43)nc2)c1` [Compound 224, N-(2-hydroxyethyl)-1′-(5-(4-methoxypyridin-2-yl)pyrimidin-2-yl)-N-methylspiro[cyclopropane-1,3′-indoline]-6′-carboxamide] was tested, and the IC50 was less than 0.1 µM.

With `COc1ccc(F)c(-c2cnc(N3CC4(CC4)c4ccc(C(=O)N(C)CCO)cc43)nc2)c1` [Compound 253, 1-[5-(2-Fluoro-5-methoxy-phenyl)-pyrimidin-2-yl]-N-(2-hydroxy-ethyl)-N-methyl-spiro[1,2-dihydro-indole-3,1′-cyclopropane]-6-carboxylic acid amide] the IC50 was less than 0.1 µM.

`Cc1cc(N)cc(-c2cnc(N3CC4(CC4)c4ccc(C(=O)N5CCOCC5)cc43)nc2)n1` [Compound 259, [1-[5-(4-Amino-6-methyl-pyridin-2-yl)-pyrimidin-2-yl]-spiro[1,2-dihydro-indole-3,1′-cyclopropane]-6-yl]-morpholin-4-yl-methanone] showed an IC50 of less than 0.1 µM.

Work on `CN(CCO)C(=O)c1ccc2c(c1)N(c1ncc(-c3cc(S(C)(=O)=O)ccn3)cn1)CC21CC1` [Compound 289, N-(2-Hydroxy-ethyl)-N-methyl-1-[5-(4-methylsulfonyl-pyridin-2-yl)-pyrimidin-2-yl]-spiro[1,2-dihydro-indole-3,1′-cyclopropane]-6-carboxylic acid amide] yielded an IC50 of less than 0.1 µM.

`CCc1ccnc(-c2cnc(N3CC4(CC4)c4ccc(C(=O)N5CCNC(=O)C5)cc43)nc2)c1` [Compound 243, 4-[1-[5-(4-Ethyl-pyridin-2-yl)-pyrimidin-2-yl]-spiro[1,2-dihydro-indole-3,1′-cyclopropane]-6-carbonyl]-piperazin-2-one] showed an IC50 of less than 0.1 µM.

For `CN(CCO)C(=O)c1ccc2c(c1)N(c1ncc(-c3cccc(C4CC4)c3)cn1)CC21CC1` [Compound 267, 1-[5-(3-Cyclopropyl-phenyl)-pyrimidin-2-yl]-N-(2-hydroxy-ethyl)-N-methyl-spiro[1,2-dihydro-indole-3,1′-cyclopropane]-6-carboxylic acid amide], the IC50 was less than 0.1 µM.

For `CC[S+]([O-])c1cccc(-c2cnc(N3CC4(CC4)c4ccc(C(=O)N(C)CCO)cc43)nc2)c1` (stereo not drawn) [Compound 341, 1-[5-[3-(Ethylsulfinyl)-phenyl]-pyrimidin-2-yl]-N-(2-hydroxy-ethyl)-N-methyl-spiro[1,2-dihydro-indole-3,1′-cyclopropane]-6-carboxylic acid amide], the IC50 was less than 0.1 µM.
